Laboratory results: patent US20200055839A1 (priority 2017, published 2020)

test system: NL-RLuc virus; test: Inhibition of HIV replication (NL-RLuc virus, luciferase readout in MT-2 cells); assay type: cell-based; conditions: Human immunodeficiency virus 1, MT2, 120 h, MT-2 cells infected with NL-RLuc virus, 5 days of incubation, 10% FBS, at least 2 experiments
In short: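 EC50 derived via median effect equation from at least 2 experiments, using luciferase expression as virus-growth readout. Replication-competent NL-RLuc reporter virus (nef partly replaced by Renilla luciferase) infected MT-2 cells with serial compound dilutions; 5-day incubation in RPMI 1640 plus 10% FBS.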

Q: `Cc1nc(NCc2ccccn2)c(-c2ccc(OCCc3ccc(F)cc3)cc2)c(N2CCC(C)(C)CC2)c1[C@H](OC(C)(C)C)C(=O)O` [Example 97, (S)-2-(tert-Butoxy)-2-(4-(4,4-dimethylpiperidin-1-yl)-5-(4-(4-fluorophenethoxy)phenyl)-2-methyl-6-((pyridin-2-ylmethyl)amino)pyridin-3-yl)acetic acid] was tested. Which EC50 did it give?
A: 5 nM

Q: With `Cc1ncc(-c2cnc(OCCc3c(F)cccc3F)c(F)c2)c(N2CCC(C)(C)CC2)c1[C@H](OC(C)(C)C)C(=O)O` [Example 393, (2S)-2-(tert-butoxy)-2-{6′-[2-(2,6-difluorophenyl)ethoxy]-4-(4,4-dimethylpiperidin-1-yl)-5′-fluoro-6-methyl-[3,3′-bipyridine]-5-yl}acetic acid] as the molecule, how does the EC50 read?
A: 2 nM

Q: For `COc1ccc(COc2ccc(-c3cnc(C)c([C@H](OC(C)(C)C)C(=O)O)c3N3CCC(C)(C)CC3)nc2)c(OC)c1` [Example 358, (2S)-2-(tert-butoxy)-2-{5-[(2,4-dimethoxyphenyl)methoxy]-4′-(4,4-dimethylpiperidin-1-yl)-6′-methyl-[2,3′-bipyridine]-5′-yl}acetic acid], which EC50 is on record?
A: 1.2 nM

Q: How did the EC50 turn out when `Cc1ncc(-c2ccc3ccccc3c2)c(N2CCC(C)(C)CC2)c1[C@H](OC(C)(C)C)C(=O)O` [Example 183, (2S)-2-(tert-Butoxy)-2-[4-(4,4-dimethylpiperidin-1-yl)-2-methyl-5-(naphthalen-2-yl)pyridin-3-yl]acetic acid] was run?
A: 6 nM

Q: How did the EC50 turn out when `Cc1nc(CN2CCC3(CCC3)CC2)c(-c2ccc(OCCc3ccc(F)cc3)c(F)c2)c(N2CCC(C)(C)CC2)c1[C@H](OC(C)(C)C)C(=O)O` [Example 231, (S)-2-(6-((7-Azaspiro[3.5]nonan-7-yl)methyl)-4-(4,4-dimethylpiperidin-1-yl)-5-(3-fluoro-4-(4-fluorophenethoxy)phenyl)-2-methylpyridin-3-yl)-2-(tert-butoxy)acetic acid] was run?
A: 0.6 nM

Q: How did the EC50 turn out when `COc1ccc(CCOc2ccc(-c3cnc(C)c([C@H](OC(C)(C)C)C(=O)O)c3N3CCC(C)(C)CC3)nc2)cc1` [Example 293, (2S)-2-(tert-butoxy)-2-[4′-(4,4-dimethylpiperidin-1-yl)-5-[2-(4-methoxyphenyl)ethoxy]-6′-methyl-[2,3′-bipyridine]-5′-yl]acetic acid] was run?
A: 1 nM

Q: `Cc1ncc(-c2ccc(OCCc3cc(F)c(F)cc3F)cn2)c(N2CCC(C)(C)CC2)c1[C@H](OC(C)(C)C)C(=O)O` [Example 353, (2S)-2-(tert-butoxy)-2-[4′-(4,4-dimethylpiperidin-1-yl)-6′-methyl-5-[2-(2,4,5-trifluorophenyl)ethoxy]-[2,3′-bipyridine]-5′-yl]acetic acid] was tested. Which EC50 did it give?
A: 0.8 nM

Q: With `Cc1ncc(-c2ccc(OCCCC(C)C)cn2)c(N2CCC(C)(C)CC2)c1[C@H](OC(C)(C)C)C(=O)O` [Example 345, (2S)-2-(tert-butoxy)-2-[4′-(4,4-dimethylpiperidin-1-yl)-6′-methyl-5-[(4-methylpentyl)oxy]-[2,3′-bipyridine]-5′-yl]acetic acid] as the molecule, how does the EC50 read?
A: 2 nM

Q: With `COc1cccc(-c2cnc(C)c([C@H](OC(C)(C)C)C(=O)O)c2N2CCC(C)(C)CC2)c1OC` [Example 158, (2S)-2-(tert-Butoxy)-2-[5-(2,3-dimethoxyphenyl)-4-(4,4-dimethylpiperidin-1-yl)-2-methylpyridin-3-yl]acetic acid] as the molecule, how does the EC50 read?
A: 16 nM

Q: Which EC50 does the source give for `Cc1nc(NCc2cccnc2)c(-c2ccc(OCCc3ccc(F)cc3)cc2)c(N2CCC(C)(C)CC2)c1[C@H](OC(C)(C)C)C(=O)O` [Example 92, (S)-2-(tert-Butoxy)-2-(4-(4,4-dimethylpiperidin-1-yl)-5-(4-(4-fluorophenethoxy)phenyl)-2-methyl-6-((pyridin-3-ylmethyl)amino)pyridin-3-yl)acetic acid] here?
A: 4 nM

Q: `Cc1nc(-n2ccnc2C)c(-c2ccc(OCCc3ccc(F)cc3)cc2)c(N2CCC(C)(C)CC2)c1[C@H](OC(C)(C)C)C(=O)O` [Example 54, (S)-2-(tert-Butoxy)-2-(4-(4,4-dimethylpiperidin-1-yl)-5-(4-(4-fluorophenethoxy)phenyl)-2-methyl-6-(2-methyl-1H-imidazol-1-yl)pyridin-3-yl)acetic acid] was tested. Which EC50 did it give?
A: 2 nM

Q: For `Cc1ncc(-c2ccc(OCCc3ccc(F)cc3)cn2)c(N2CCC(C)(C)CC2)c1[C@H](OC(C)(C)C)C(=O)O` [Example 126, (2S)-2-(tert-Butoxy)-2-[4′-(4,4-dimethylpiperidin-1-yl)-5-[2-(4-fluorophenyl)ethoxy]-6′-methyl-[2, 3′-bipyridine]-5′-yl]acetic acid], which EC50 is on record?
A: 0.4 nM

Q: Which EC50 does the source give for `Cc1ncc(-c2ccc(OCCc3ccc(F)cc3)nc2F)c(N2CCC(C)(C)CC2)c1[C@H](OC(C)(C)C)C(=O)O` (single isomer, unassigned) [Example 263] here?
A: 3 nM

Q: With `Cc1ccc(Nc2nc(C)c([C@H](OC(C)(C)C)C(=O)O)c(N3CCC(C)(C)CC3)c2-c2ccc(OCCc3ccc(F)cc3)cc2)c(C)n1` [Example 85, (S)-2-(tert-Butoxy)-2-(4-(4,4-dimethylpiperidin-1-yl)-6-((2,6-dimethylpyridin-3-yl)amino)-5-(4-(4-fluorophenethoxy)phenyl)-2-methylpyridin-3-yl)acetic acid] as the molecule, how does the EC50 read?
A: 3 nM

Q: Which EC50 does the source give for `Cc1nc(-c2ccn(C)n2)c(-c2ccc(OCCc3ccc(F)cc3)cc2)c(N2CCC(C)(C)CC2)c1[C@H](OC(C)(C)C)C(=O)O` [Example 46, (S)-2-(tert-Butoxy)-2-(4-(4,4-dimethylpiperidin-1-yl)-5-(4-(4-fluorophenethoxy)phenyl)-2-methyl-6-(1-methyl-1H-pyrazol-3-yl)pyridin-3-yl)acetic acid] here?
A: 4 nM

Q: How did the EC50 turn out when `Cc1ncc(-c2ccc3ccncc3c2)c(N2CCC(C)(C)CC2)c1[C@H](OC(C)(C)C)C(=O)O` [Example 176, (2S)-2-(tert-Butoxy)-2-[4-(4,4-dimethylpiperidin-1-yl)-5-(isoquinolin-7-yl)-2-methylpyridin-3-yl]acetic acid] was run?
A: 5 nM

Q: How did the EC50 turn out when `Cc1nc(Nc2ccncn2)c(-c2ccc(OCCc3ccc(F)cc3)cc2)c(N2CCC(C)(C)CC2)c1[C@H](OC(C)(C)C)C(=O)O` [Example 88, (S)-2-(tert-Butoxy)-2-(4-(4,4-dimethylpiperidin-1-yl)-5-(4-(4-fluorophenethoxy)phenyl)-2-methyl-6-(pyrimidin-4-ylamino)pyridin-3-yl)acetic acid] was run?
A: 0.5 nM

Q: Which EC50 does the source give for `CCCOc1ccc(CCOc2ccc(-c3cnc(C)c([C@H](OC(C)(C)C)C(=O)O)c3N3CCC(C)(C)CC3)nc2)cc1` [Example 325, (2S)-2-(tert-butoxy)-2-[4′-(4,4-dimethylpiperidin-1-yl)-6′-methyl-5-[2-(4-propoxyphenyl)ethoxy]-[2,3′-bipyridine]-5′-yl]acetic acid] here?
A: 3 nM

Q: How did the EC50 turn out when `Cc1cccc(Cl)c1COc1ccc(-c2cnc(C)c([C@H](OC(C)(C)C)C(=O)O)c2N2CCC(C)(C)CC2)nc1` [Example 283, (S)-2-(tert-Butoxy)-2-(5-((2-chloro-6-methylbenzyl)oxy)-4′-(4,4-dimethylpiperidin-1-yl)-6′-methyl-[2, 3′-bipyridin]-5′-yl)acetic acid] was run?
A: 3 nM

Q: How did the EC50 turn out when `Cc1nc(Nc2ccncc2F)c(-c2ccc(OCCc3ccc(F)cc3)cc2)c(N2CCC(C)(C)CC2)c1[C@H](OC(C)(C)C)C(=O)O` [Example 93, (S)-2-(tert-Butoxy)-2-(4-(4,4-dimethylpiperidin-1-yl)-5-(4-(4-fluorophenethoxy)phenyl)-6-((3-fluoropyridin-4-yl)amino)-2-methylpyridin-3-yl)acetic acid] was run?
A: 12 nM

Q: For `Cc1ncc(-c2ccc(O[C@@H](C)C(C)C)cn2)c(N2CCC(C)(C)CC2)c1[C@H](OC(C)(C)C)C(=O)O` [Example 311, (2S)-2-(tert-butoxy)-2-[4′-(4,4-dimethylpiperidin-1-yl)-6′-methyl-5-{[(2S)-3-methylbutan-2-yl]oxy}-[2,3′-bipyridine]-5′-yl]acetic acid], which EC50 is on record?
A: 1 nM

Q: `COc1ccccc1COc1ccc(-c2cnc(C)c([C@H](OC(C)(C)C)C(=O)O)c2N2CCC(C)(C)CC2)nc1` [Example 357, (2S)-2-(tert-butoxy)-2-[4′-(4,4-dimethylpiperidin-1-yl)-5-[(2-methoxyphenyl)methoxy]-6′-methyl-[2,3′-bipyridine]-5′-yl]acetic acid] was tested. Which EC50 did it give?
A: 0.8 nM

Q: Which EC50 does the source give for `Cc1nc(N(C)CCCN(C)C)c(-c2ccc(OCCc3ccc(F)cc3)cc2)c(N2CCC(C)(C)CC2)c1[C@H](OC(C)(C)C)C(=O)O` [Example 98, (S)-2-(tert-Butoxy)-2-(6-((3-(dimethylamino)propyl)(methyl)amino)-4-(4,4-dimethylpiperidin-1-yl)-5-(4-(4-fluorophenethoxy)phenyl)-2-methylpyridin-3-yl)acetic acid] here?
A: 2 nM

Q: How did the EC50 turn out when `CCCOc1ncc(-c2cnc(C)c([C@H](OC(C)(C)C)C(=O)O)c2N2CCC(C)(C)CC2)cc1F` [Example 389, (2S)-2-(tert-butoxy)-2-[4-(4,4-dimethylpiperidin-1-yl)-5′-fluoro-6-methyl-6′-propoxy-[3,3′-bipyridine]-5-yl]acetic acid] was run?
A: 3 nM

Q: With `COc1cccc(-c2cnc(C)c([C@H](OC(C)(C)C)C(=O)O)c2N2CCC(C)(C)CC2)c1F` [Example 156, (2S)-2-(tert-Butoxy)-2-[4-(4,4-dimethylpiperidin-1-yl)-5-(2-fluoro-3-methoxyphenyl)-2-methylpyridin-3-yl]acetic acid] as the molecule, how does the EC50 read?
A: 1 nM

Q: `Cc1ncc(-c2ccc(OCC(C)C)nc2)c(N2CCC(C)(C)CC2)c1C(OC(C)(C)C)C(=O)O` (stereo in doubt) [Example 409, (S)-2-(tert-butoxy)-2-(4-(4,4-dimethylpiperidin-1-yl)-6′-isobutoxy-6-methyl-[3,3′-bipyridin]-5-yl)acetic acid] was tested. Which EC50 did it give?
A: 1 nM

Q: `Cc1ncc(-c2cnc(OCCc3c(Cl)cccc3Cl)c(F)c2)c(N2CCC(C)(C)CC2)c1[C@H](OC(C)(C)C)C(=O)O` [Example 373, (2S)-2-(tert-butoxy)-2-{6′-[2-(2,6-dichlorophenyl)ethoxy]-4-(4,4-dimethylpiperidin-1-yl)-5′-fluoro-6-methyl-[3,3′-bipyridine]-5-yl}acetic acid] was tested. Which EC50 did it give?
A: 3 nM
